Eleven molecules from patent US12227488B2, “Small molecule degraders of Helios and methods of use” (DANA-FARBER CANCER INSTITUTE, INC., priority 2018, dated 2025) can be followed below.

In one experiment the target is T1, CRBN and Helios (IKZF2) (Homo sapiens, UniProt Q96SW2+Q9UKS7).
T1 construct: His (N); Strep (N)
Kind of experiment: TR-FRET dimerization assay (CRBN-IKZF2 ternary complex formation). Format: binding. The note with it: n=1. Here is the method:
A focused library of imide analogs was synthesized and assessed for their ability to induce dimerization between CRBN and Helios in a time-resolved fluorescence energy transfer (TR-FRET) assay (FIG. 1A).
Prior to TR-FRET measurements being conducted, the reactions were incubated for 15 min at rt. […] The TR-FRET signal of each data point was extracted by calculating the 520/490 nm ratios. Data from single measurements (n=1), each calculated as an average of at least three technical replicates per well per experiment are presented in Table 1.
BODIPY-labeled CRBN in complex with Damage Specific DNA Binding Protein 1 (DDB1) harboring an internal deletion of the flexible BPB propeller (DDB1AB-CRBN) and in vitro biotinylated IKZF2 were treated with increasing concentrations of the indicated compounds in the presence of tracer amounts of Terbium-Streptavidin (Tb-SA). Compound-induced recruitment of IKZF2 to CRBN was quantified following the 520/490 TR-FRET ratio using a PHERAstar® plate reader (BMG) utilizing two synchronized PMTs to reduce background.

For the next experiment, the system named is IKZF2. Kind of experiment: Cellular degradation assay, eGFP-IKZF2Δ fusion with mCherry reporter in Flp-In 293 cells. Format: cell-based. The note with it: for IKZF2 GFP/RFP Relative Abundance: 5 h incubation, n=1; for DC50: half degradation at 5 h (DC50,5 h), triplicate, 11 point dose response. On the procedure:
(§1) IKZF1Δ, IKZF2Δ, GSPT1 and SALL4 ZnF1-2 were subcloned into mammalian pcDNA5/FRT Vector (Ampicillin and Hygromycin B resistant) modified to contain MCS-eGFP-P2A-mCherry. […] Following 2-3 passage cycle, FACS (FACSAria™ II, BD) was used to enrich for cells expressing eGFP and mCherry. Cells stably expressing the IKZF1Δ, IKZF2Δ, GSPT1 or SALL4 Znf1-2 GFP fusions with mCherry reporter were seeded at 30-50% confluency in 384-well plates with 50 μL FluoroBrite™ DMEM media (Thermo Fisher Scientific, A18967) containing 10% FBS per well a day before compound treatment. Compound titrations were dispensed using a D300e Digital Dispenser (HP), normalized to 0.5% DMSO, and incubated with cells for 5 hours.
(§2) The resulting images were analyzed using CellProfiler™. A series of image analysis steps (‘image analysis pipeline’) was constructed. First, the red and green channels were aligned and cropped to target the middle of each well (to avoid analysis of heavily clumped cells at the edges), and a background illumination function was calculated for both red and green channels of each well individually and subtracted to correct for illumination variations across the 384-well plate from various sources of error. An additional step was then applied to the green channel to suppress the analysis of large auto fluorescent artifacts and enhance the analysis of cell specific fluorescence by way of selecting for objects under a given size, 30 A.U., and with a given shape, speckles. mCherry-positive cells were then identified in the red channel filtering for objects between 8-60 pixels in diameter and using intensity to distinguish between clumped objects. The green channel was then segmented into GFP positive and negative areas and objects were labeled as GFP positive if at least 40% of it overlapped with a GFP positive area. The fraction of GFP-positive cells/mCherry-positive cells in each well was then calculated, and the green and red images were rescaled for visualization.
(§3) The degradation assay was performed as described above. […] Degradation was measured after 5 h of compound treatment and the concentrations that lead to half degradation at 5 h (DC50,5 h) were calculated using the nonlinear fit variable slope model (GraphPad Software).

In a further experiment the target is T2, IKZF1 (Homo sapiens, UniProt Q13422).
T2 construct: expressed in transfected cells; host or cells: Flp-In 293
In words: Cellular degradation assay, eGFP-IKZF1Δ fusion with mCherry reporter in Flp-In 293 cells. As to conditions: for IKZF1 GFP/RFP Relative Abundance: 5 h incubation, n=1; for DC50: half degradation at 5 h (DC50,5 h), triplicate, 11 point dose response. Format: cell-based. Here is the method:
as §1, §2, §3

The next experiment has as its target GSPT1 (Homo sapiens, UniProt P15170+Q96SW2). Kind of experiment: Cellular degradation assay, eGFP-GSPT1 fusion with mCherry reporter in Flp-In 293 cells. Format: cell-based. Further details: expressed in transfected cells; host or cells: Flp-In 293. The note with it: half degradation at 5 h (DC50,5 h); triplicate, 11 point dose response. On the procedure: as §1, §2, §3

Setting [1] is: compound concentration 6.6667E−05.
[2] abbreviates: compound concentration 6.6667E−06.
The mark [3] stands for this setting: compound concentration 6.6667E−07 (667 nM).
The mark [4] stands for this setting: compound concentration 2.00E−05.
Where [5] appears, read: compound concentration 2.00E−06.
Where [6] appears, read: compound concentration 2.00E−07.

Chain of GSPT1 (P15170 whole entry, the tested form may be a part): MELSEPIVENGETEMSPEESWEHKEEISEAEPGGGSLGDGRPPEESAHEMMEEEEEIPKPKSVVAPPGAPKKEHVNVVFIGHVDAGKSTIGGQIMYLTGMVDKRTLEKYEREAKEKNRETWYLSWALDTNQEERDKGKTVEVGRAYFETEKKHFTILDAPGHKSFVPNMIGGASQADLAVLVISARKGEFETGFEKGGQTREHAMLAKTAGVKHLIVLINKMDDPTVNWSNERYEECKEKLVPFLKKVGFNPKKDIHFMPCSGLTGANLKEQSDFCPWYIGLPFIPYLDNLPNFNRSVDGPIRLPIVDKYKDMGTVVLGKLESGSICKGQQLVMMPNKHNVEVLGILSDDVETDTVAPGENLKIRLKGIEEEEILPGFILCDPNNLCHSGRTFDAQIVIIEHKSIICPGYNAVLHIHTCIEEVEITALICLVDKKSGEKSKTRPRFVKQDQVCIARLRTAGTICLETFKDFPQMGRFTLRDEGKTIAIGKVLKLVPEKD
Chain of GSPT1 (Q96SW2 whole entry, the tested form may be a part): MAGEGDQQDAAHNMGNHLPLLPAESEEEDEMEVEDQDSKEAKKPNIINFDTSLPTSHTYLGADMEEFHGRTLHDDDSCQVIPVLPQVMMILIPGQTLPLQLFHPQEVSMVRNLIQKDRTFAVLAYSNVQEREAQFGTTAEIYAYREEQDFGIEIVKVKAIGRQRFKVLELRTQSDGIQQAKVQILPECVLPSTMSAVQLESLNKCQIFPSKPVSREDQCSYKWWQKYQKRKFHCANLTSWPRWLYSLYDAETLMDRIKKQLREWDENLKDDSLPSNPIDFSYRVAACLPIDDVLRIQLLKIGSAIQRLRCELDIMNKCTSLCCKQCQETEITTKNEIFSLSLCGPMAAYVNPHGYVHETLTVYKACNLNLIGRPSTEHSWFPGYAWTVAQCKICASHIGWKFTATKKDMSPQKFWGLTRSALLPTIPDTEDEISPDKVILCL
Chain of GSPT1 (Q16531 whole entry partner, the tested form may be a part): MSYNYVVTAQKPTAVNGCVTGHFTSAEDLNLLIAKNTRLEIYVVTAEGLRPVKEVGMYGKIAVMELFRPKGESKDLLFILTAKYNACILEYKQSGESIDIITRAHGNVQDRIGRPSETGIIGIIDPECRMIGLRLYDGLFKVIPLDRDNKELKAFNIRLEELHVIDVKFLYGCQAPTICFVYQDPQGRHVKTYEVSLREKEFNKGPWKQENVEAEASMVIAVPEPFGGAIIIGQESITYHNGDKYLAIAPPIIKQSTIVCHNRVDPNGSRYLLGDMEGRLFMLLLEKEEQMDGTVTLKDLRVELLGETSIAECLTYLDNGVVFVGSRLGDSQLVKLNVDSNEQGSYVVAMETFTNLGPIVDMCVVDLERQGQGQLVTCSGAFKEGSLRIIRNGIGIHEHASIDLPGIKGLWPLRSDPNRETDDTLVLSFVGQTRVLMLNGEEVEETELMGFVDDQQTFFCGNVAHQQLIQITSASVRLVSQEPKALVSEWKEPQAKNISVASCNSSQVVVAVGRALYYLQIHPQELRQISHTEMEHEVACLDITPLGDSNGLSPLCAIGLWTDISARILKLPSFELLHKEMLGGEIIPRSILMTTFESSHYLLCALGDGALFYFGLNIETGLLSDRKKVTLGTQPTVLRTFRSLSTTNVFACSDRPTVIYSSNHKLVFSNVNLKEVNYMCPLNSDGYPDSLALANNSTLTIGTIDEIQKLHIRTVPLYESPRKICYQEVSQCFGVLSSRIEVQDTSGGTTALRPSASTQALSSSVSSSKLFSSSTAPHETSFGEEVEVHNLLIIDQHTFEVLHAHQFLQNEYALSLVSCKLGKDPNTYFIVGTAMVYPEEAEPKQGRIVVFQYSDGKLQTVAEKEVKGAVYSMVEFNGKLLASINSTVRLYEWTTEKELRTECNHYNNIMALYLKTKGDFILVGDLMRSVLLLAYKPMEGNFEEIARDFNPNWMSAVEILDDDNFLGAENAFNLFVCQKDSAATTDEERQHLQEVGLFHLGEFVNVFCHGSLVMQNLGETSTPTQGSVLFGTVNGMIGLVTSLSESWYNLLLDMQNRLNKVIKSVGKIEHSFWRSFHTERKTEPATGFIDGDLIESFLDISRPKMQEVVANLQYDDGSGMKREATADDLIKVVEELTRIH
T2 sequence (Q13422 83-213 isoform Q13422-7 limits assumed): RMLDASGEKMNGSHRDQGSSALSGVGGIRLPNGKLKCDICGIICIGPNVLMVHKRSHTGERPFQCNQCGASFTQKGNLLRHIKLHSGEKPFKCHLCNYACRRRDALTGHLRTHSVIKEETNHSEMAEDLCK
T2 sequence (Q96SW2 whole entry partner): as the sequence (Q96SW2 whole entry, the tested form may be a part) above
T2 sequence (Q16531 2-1140 partner limits assumed): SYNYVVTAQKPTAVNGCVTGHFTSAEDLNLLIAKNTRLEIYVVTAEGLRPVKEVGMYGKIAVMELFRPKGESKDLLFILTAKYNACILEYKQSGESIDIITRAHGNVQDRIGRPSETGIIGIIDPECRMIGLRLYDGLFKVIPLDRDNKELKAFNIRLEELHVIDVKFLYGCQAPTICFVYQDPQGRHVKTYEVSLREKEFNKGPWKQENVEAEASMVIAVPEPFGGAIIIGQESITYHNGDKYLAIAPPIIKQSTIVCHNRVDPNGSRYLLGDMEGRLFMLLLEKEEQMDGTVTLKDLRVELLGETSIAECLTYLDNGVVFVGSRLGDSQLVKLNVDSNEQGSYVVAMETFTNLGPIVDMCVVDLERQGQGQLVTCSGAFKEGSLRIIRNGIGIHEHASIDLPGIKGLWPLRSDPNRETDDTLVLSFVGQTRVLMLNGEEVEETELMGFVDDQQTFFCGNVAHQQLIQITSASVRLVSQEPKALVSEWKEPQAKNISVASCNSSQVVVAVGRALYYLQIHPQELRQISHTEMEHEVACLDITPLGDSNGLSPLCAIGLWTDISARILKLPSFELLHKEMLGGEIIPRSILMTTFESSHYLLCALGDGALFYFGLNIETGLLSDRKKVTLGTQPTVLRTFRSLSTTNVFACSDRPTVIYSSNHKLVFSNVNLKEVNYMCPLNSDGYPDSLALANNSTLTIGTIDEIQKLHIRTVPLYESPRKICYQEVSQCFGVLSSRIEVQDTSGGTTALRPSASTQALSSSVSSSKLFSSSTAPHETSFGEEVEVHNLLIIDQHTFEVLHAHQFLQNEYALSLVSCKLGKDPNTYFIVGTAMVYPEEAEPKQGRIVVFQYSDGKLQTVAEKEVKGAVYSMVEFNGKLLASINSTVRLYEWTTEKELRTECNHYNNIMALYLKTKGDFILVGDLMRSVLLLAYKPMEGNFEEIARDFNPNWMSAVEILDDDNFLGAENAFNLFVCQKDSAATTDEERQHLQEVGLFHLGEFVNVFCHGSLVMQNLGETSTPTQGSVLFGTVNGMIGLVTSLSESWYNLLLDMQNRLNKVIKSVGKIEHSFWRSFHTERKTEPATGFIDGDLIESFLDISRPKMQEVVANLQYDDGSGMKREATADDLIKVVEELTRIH
T1 sequence (Q96SW2 whole entry): as the sequence (Q96SW2 whole entry, the tested form may be a part) above
T1 sequence (Q9UKS7 whole entry): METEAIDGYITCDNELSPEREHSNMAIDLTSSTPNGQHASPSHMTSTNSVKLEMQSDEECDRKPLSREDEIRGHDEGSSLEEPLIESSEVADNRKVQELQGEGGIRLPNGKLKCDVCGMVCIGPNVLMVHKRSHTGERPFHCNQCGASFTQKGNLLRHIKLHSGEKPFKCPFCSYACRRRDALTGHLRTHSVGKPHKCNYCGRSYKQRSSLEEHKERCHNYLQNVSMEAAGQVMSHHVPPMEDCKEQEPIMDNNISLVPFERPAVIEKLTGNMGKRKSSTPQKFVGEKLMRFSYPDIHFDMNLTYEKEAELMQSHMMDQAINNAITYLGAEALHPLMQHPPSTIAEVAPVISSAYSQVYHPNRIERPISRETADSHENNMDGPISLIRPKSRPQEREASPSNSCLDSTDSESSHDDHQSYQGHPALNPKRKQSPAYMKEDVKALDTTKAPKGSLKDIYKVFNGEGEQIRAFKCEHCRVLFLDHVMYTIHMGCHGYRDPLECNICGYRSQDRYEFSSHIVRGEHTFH

Regarding `Cc1cc(CNC(=O)NC(C)c2cccc(NC3=CC(=O)N(C4CCC(=O)NC4=O)C3=O)c2)ccc1Cl` (centres unmarked) [Compound 120, 1-(4-chloro-3-methylbenzyl)-3-(1-(3-((1-(2,6-dioxopiperidin-3-yl)-2,5-dioxo-2,5-dihydro-1H-pyrrol-3-yl)amino)phenyl)ethyl)urea], the “TR-FRET-IKZF2 (Normalized to CC-885)” value came to 1.263 on CRBN and Helios (IKZF2) (setting [1]); 1.011 at CRBN and Helios (IKZF2) (setting [2]); 0.860 on CRBN and Helios (IKZF2) (setting [3]). Further, the “IKZF2 GFP/RFP Relative Abundance” value with IKZF2 (setting [4]) was found to be 0.077; in the experiment with IKZF2 (setting [5]), 0.117; with IKZF2 (setting [6]), 0.157. Further, the “IKZF1 GFP/RFP Relative Abundance” value on IKZF1 (setting [4]) is listed as 0.094; on IKZF1 (setting [5]), 0.110; at IKZF1 (setting [6]), 0.092.

For `Cc1ccc(CNC(=O)CCc2cccc(NC3=CC(=O)N(C4CCC(=O)NC4=O)C3=O)c2)cc1Cl` (centres unmarked) [Compound 121, N-(3-chloro-4-methylbenzyl)-3-(3-((1-(2,6-dioxopiperidin-3-yl)-2,5-dioxo-2,5-dihydro-1H-pyrrol-3-yl)amino)phenyl)propanamide], the “TR-FRET-IKZF2 (Normalized to CC-885)” value at CRBN and Helios (IKZF2) (setting [1]) is 1.521; at CRBN and Helios (IKZF2) (setting [2]), 1.376; on CRBN and Helios (IKZF2) (setting [3]) it was 1.357. The “IKZF2 GFP/RFP Relative Abundance” value in the experiment with IKZF2 (setting [4]) turned out to be 0.071; with IKZF2 (setting [5]) it was 0.087; with IKZF2 (setting [6]), 0.051. For the same molecule, the results for the “IKZF1 GFP/RFP Relative Abundance” value at IKZF1 (setting [4]), at IKZF1 (setting [5]) and at IKZF1 (setting [6]) were 0.125, 0.093 and 0.120, respectively.

`Cc1ccc(CNC(=O)c2cccc(NC3=CC(=O)N(C4CCC(=O)NC4=O)C3=O)c2)cc1Cl` (centres unmarked) [Compound 122, N-(3-chloro-4-methylbenzyl)-3-((1-(2,6-dioxopiperidin-3-yl)-2,5-dioxo-2,5-dihydro-1H-pyrrol-3-yl)amino)benzamide]: the “TR-FRET-IKZF2 (Normalized to CC-885)” value came out at 0.715 at CRBN and Helios (IKZF2) (setting [1]); 0.628 at CRBN and Helios (IKZF2) (setting [2]); 0.469 at CRBN and Helios (IKZF2) (setting [3]). For the same molecule, the results for the “IKZF2 GFP/RFP Relative Abundance” value in the experiment with IKZF2 (setting [4]), with IKZF2 (setting [5]) and in the experiment on IKZF2 (setting [6]) were 0.738, 0.789 and 0.833, respectively. Besides, the “IKZF1 GFP/RFP Relative Abundance” value on IKZF1 (setting [4]) is reported as 0.076; on IKZF1 (setting [5]), 0.088; on IKZF1 (setting [6]) it was 0.096.

Turning to `Cc1ccc(CNC(=O)Cc2cccc(NC3=CC(=O)N(C4CCC(=O)NC4=O)C3=O)c2)cc1Cl` (centres unmarked) [Compound 123, N-(3-chloro-4-methylbenzyl)-2-(3-((1-(2,6-dioxopiperidin-3-yl)-2,5-dioxo-2,5-dihydro-1H-pyrrol-3-yl)amino)phenyl)acetamide], the “TR-FRET-IKZF2 (Normalized to CC-885)” value on CRBN and Helios (IKZF2) (setting [1]) is given as 1.234; at CRBN and Helios (IKZF2) (setting [2]), 1.087; at CRBN and Helios (IKZF2) (setting [3]) it was 0.960. The “IKZF2 GFP/RFP Relative Abundance” value in the experiment with IKZF2 (setting [4]) worked out at 0.065; in the experiment on IKZF2 (setting [5]), 0.093; in the experiment with IKZF2 (setting [6]), 0.078. Moreover, the entries for the “IKZF1 GFP/RFP Relative Abundance” value on IKZF1 (setting [4]), at IKZF1 (setting [5]) and on IKZF1 (setting [6]) were 0.083, 0.057 and 0.092, respectively.

Turning to `Cc1ccc(NC(=O)Nc2cccc3c(NC4=CC(=O)N(C5CCC(=O)NC5=O)C4=O)cccc23)cc1Cl` (centres unmarked) [Compound 124, 1-(3-chloro-4-methylphenyl)-3-(5-((1-(2,6-dioxopiperidin-3-yl)-2,5-dioxo-2,5-dihydro-1H-pyrrol-3-yl)amino)naphthalen-1-yl)urea], the “TR-FRET-IKZF2 (Normalized to CC-885)” value is reported as 0.159 on CRBN and Helios (IKZF2) (setting [1]); 0.130 at CRBN and Helios (IKZF2) (setting [2]); 0.077 at CRBN and Helios (IKZF2) (setting [3]). Besides, the “IKZF2 GFP/RFP Relative Abundance” value is on record as 0.829 in the experiment with IKZF2 (setting [4]), 1.015 in the experiment on IKZF2 (setting [5]) and 0.985 with IKZF2 (setting [6]). The results for the “IKZF1 GFP/RFP Relative Abundance” value on IKZF1 (setting [4]), on IKZF1 (setting [5]) and at IKZF1 (setting [6]) were 0.689, 0.978 and 1.005, respectively.

`Cc1ccc(NC(=O)COc2cccc(NC3=CC(=O)N(C4CCC(=O)NC4=O)C3=O)c2)cc1Cl` (centres unmarked) [Compound 125, N-(3-chloro-4-methylphenyl)-2-(3-((1-(2,6-dioxopiperidin-3-yl)-2,5-dioxo-2,5-dihydro-1H-pyrrol-3-yl)amino)phenoxy)acetamide]: the DC50 (usually the concentration at which degradation of the target reaches its halfway point) is 0.024 µM with IKZF2, 0.0017 µM on IKZF1 and > 1 µM on GSPT1. The “potency of IKZF1 degradation, in words” value on IKZF1 (Table 3 summary) was “most potent against IKZF1”.

As to `Cc1ccc(NC(=O)NCCc2cccc(NC3=CC(=O)N(C4CCC(=O)NC4=O)C3=O)c2)cc1C(F)(F)F` (centres unmarked) [Compound 126, 1-(3-((1-(2,6-dioxopiperidin-3-yl)-2,5-dioxo-2,5-dihydro-1H-pyrrol-3-yl)amino)phenethyl)-3-(4-methyl-3-(trifluoromethyl)phenyl)urea], the “TR-FRET-IKZF2 (Normalized to CC-885)” value on CRBN and Helios (IKZF2) (setting [1]) was 1.762; at CRBN and Helios (IKZF2) (setting [2]) it was 1.603; on CRBN and Helios (IKZF2) (setting [3]), 1.420. Moreover, the figures for the “IKZF2 GFP/RFP Relative Abundance” value in the experiment with IKZF2 (setting [4]), with IKZF2 (setting [5]) and in the experiment with IKZF2 (setting [6]) were 0.059, 0.033 and 0.047, respectively. The “IKZF1 GFP/RFP Relative Abundance” value on IKZF1 (setting [4]) is given as 0.177; on IKZF1 (setting [5]), 0.072; at IKZF1 (setting [6]) it was 0.100.

With `Cc1ccc(N(C)C(=O)CCc2cccc(NC3=CC(=O)N(C4CCC(=O)NC4=O)C3=O)c2)cc1Cl` (centres unmarked) [Compound 127, N-(3-chloro-4-methylphenyl)-3-(3-((1-(2,6-dioxopiperidin-3-yl)-2,5-dioxo-2,5-dihydro-1H-pyrrol-3-yl)amino)phenyl)-N-methylpropanamide], the “TR-FRET-IKZF2 (Normalized to CC-885)” value at CRBN and Helios (IKZF2) (setting [1]) is listed as 1.390; on CRBN and Helios (IKZF2) (setting [2]) it was 1.362; at CRBN and Helios (IKZF2) (setting [3]), 1.195. In addition, the “IKZF2 GFP/RFP Relative Abundance” value in the experiment with IKZF2 (setting [4]) stood at 0.266; in the experiment on IKZF2 (setting [5]) it was 0.047; in the experiment on IKZF2 (setting [6]), 0.060. In addition, the “IKZF1 GFP/RFP Relative Abundance” value at IKZF1 (setting [4]) is 0.313; at IKZF1 (setting [5]) it was 0.079; on IKZF1 (setting [6]), 0.079.

For `CC(C)(NC(=O)Cc1cccc(C(F)(F)F)c1)c1cccc(NC2=CC(=O)N(C3CCC(=O)NC3=O)C2=O)c1` (centres unmarked) [Compound 139, N-(2-(3-((1-(2,6-dioxopiperidin-3-yl)-2,5-dioxo-2,5-dihydro-1H-pyrrol-3-yl)amino)phenyl)propan-2-yl)-2-(3-(trifluoromethyl)phenyl)acetamide], the “degradation selectivity IKZF2/IKZF1” value with IKZF2 (from DC50 values of Table 3) turned out to be 10 fold. For the same molecule, the DC50 in the experiment on IKZF2 is 0.017 µM; at IKZF1, 0.167 µM; at GSPT1 it was > 1 µM.

For `CC(NC(=O)Cc1cccc(C(F)(F)F)c1)c1cccc(NC2=CC(=O)N(C3CCC(=O)NC3=O)C2=O)c1` (centres unmarked) [Compound 142, N-(1-(3-((1-(2,6-dioxopiperidin-3-yl)-2,5-dioxo-2,5-dihydro-1H-pyrrol-3-yl)amino)phenyl)ethyl)-2-(3-(trifluoromethyl)phenyl)acetamide], the DC50 with IKZF2 is 0.016 µM; at IKZF1, 0.016 µM; at GSPT1 it was > 1 µM.

In the case of `O=C1CCC(N2C(=O)C=C(Nc3cccc(CCC(=O)Nc4cccc(C(F)(F)F)c4)c3)C2=O)C(=O)N1` (centres unmarked) [Compound 148, 3-(3-((1-(2,6-dioxopiperidin-3-yl)-2,5-dioxo-2,5-dihydro-1H-pyrrol-3-yl)amino)phenyl)-N-(3-(trifluoromethyl)phenyl)propanamide], the DC50 in the experiment with IKZF2 was 0.013 µM; on IKZF1, 0.0032 µM; at GSPT1 it was > 1 µM.
